Experimental data: patent US20090298820A1, “3-SUBSTITUTED-1H-PYRROLO[2,3-B]PYRIDINE AND 3-SUBSTITUTED-1H-PYRROLO[3,2-B]PYRIDINE COMPOUNDS, THEIR USE AS MTOR KINASE AND PI3 KINASE INHIBITORS, AND THEIR SYNTHESES” (Wyeth, priority 2008, published 2009)
pIC50: −log10 of the molar value.

Columns and labels:
Type in all cases: biochemical
[1] = target: PI3Kα (Homo sapiens, UniProt P42336); experiment: PI3K-alpha fluorescence polarization assay; conditions: read-out: PI3Kα Median IC50
[2] = target: mTOR (Homo sapiens, UniProt P42345); experiment: mTOR enzyme assay (DELFIA format, His6-S6K substrate); conditions: read-out: mTOR Kinase Median IC50
[3] = target: PI3Kγ (Homo sapiens, UniProt P48736); experiment: PI3K-gamma fluorescence polarization assay; conditions: read-out: PI3Kγ Median IC50
PI3Kγ, sequence (P48736 whole entry, species assumed): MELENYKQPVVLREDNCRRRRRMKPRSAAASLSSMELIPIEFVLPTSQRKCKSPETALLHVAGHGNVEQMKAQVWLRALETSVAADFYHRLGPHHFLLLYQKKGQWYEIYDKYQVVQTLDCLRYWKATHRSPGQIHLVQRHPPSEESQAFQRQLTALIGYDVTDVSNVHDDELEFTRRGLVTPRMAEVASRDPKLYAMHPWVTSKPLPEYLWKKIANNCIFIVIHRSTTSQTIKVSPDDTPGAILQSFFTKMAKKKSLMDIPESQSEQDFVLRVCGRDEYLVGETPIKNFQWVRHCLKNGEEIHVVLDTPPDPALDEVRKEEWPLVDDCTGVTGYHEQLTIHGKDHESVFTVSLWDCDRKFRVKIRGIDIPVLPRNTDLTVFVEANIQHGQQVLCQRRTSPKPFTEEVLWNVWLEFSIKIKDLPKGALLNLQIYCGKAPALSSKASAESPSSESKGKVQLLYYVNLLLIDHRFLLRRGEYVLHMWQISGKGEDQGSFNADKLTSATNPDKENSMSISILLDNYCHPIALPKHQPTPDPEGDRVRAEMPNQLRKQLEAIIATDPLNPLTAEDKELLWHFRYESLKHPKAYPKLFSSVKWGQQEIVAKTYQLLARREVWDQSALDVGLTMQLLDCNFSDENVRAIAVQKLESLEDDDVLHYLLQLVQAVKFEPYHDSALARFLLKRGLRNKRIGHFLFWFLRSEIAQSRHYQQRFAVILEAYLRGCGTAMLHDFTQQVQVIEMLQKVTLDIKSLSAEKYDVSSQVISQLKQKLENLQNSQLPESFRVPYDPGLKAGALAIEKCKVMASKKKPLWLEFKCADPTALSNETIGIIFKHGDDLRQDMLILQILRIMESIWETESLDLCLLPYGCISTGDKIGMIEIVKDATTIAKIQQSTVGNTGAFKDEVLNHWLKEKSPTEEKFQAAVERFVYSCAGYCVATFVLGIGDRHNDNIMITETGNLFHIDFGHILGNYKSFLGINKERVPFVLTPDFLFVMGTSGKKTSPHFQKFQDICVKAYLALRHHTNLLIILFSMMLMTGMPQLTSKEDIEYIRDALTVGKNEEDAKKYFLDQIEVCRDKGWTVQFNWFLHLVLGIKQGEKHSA

PI3Kα, sequence (P42336 whole entry, species assumed): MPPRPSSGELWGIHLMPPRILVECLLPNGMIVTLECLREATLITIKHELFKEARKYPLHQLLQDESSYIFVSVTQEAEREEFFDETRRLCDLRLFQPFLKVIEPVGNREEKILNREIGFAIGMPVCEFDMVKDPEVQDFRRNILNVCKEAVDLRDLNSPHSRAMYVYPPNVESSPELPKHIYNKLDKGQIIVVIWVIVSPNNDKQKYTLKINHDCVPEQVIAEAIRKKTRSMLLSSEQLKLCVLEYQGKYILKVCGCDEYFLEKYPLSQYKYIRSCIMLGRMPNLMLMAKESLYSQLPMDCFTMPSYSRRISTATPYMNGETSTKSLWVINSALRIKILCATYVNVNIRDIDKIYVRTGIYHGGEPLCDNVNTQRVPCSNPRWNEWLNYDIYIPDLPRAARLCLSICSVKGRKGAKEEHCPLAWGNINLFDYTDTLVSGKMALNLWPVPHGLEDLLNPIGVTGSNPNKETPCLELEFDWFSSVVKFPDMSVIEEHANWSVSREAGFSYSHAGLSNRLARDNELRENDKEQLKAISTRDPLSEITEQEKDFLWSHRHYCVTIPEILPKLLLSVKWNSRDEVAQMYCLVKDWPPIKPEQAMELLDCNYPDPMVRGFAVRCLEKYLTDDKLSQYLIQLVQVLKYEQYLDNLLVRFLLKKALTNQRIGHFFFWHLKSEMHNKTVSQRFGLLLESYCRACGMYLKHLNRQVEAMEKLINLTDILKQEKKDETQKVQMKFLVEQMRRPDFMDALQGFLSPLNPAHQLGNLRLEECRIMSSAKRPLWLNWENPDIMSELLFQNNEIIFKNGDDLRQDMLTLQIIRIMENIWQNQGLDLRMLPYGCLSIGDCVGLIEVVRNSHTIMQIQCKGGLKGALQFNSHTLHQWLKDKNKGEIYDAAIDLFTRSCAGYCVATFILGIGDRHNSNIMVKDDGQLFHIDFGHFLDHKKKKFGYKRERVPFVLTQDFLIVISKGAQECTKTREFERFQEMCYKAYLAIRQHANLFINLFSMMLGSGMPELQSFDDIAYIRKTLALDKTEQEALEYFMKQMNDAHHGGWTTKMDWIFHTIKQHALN
PI3Kα, sequence (P27986 whole entry partner, species assumed): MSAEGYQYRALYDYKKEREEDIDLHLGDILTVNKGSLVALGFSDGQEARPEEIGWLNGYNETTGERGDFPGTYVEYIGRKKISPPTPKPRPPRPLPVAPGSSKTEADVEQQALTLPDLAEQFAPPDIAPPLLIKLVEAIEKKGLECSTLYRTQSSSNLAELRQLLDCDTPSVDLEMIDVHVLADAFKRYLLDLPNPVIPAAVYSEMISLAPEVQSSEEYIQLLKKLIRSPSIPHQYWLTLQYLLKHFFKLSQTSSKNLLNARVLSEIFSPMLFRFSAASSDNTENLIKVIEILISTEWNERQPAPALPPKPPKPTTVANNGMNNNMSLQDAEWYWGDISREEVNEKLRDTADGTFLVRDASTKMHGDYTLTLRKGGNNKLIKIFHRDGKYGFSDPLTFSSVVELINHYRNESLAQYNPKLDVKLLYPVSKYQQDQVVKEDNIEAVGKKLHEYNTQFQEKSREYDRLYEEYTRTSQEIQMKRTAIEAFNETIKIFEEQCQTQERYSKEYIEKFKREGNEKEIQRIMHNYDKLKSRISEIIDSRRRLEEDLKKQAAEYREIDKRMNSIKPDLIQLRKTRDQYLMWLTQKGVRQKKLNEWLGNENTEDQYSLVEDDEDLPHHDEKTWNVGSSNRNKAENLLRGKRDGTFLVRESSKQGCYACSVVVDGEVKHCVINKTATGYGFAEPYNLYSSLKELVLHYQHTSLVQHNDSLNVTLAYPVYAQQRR

Molecule	pIC50 [1]	pIC50 [2]	pIC50 [3]
Cn1cc(/C=C2\Oc3ccc(NC(=O)NC4CCN(C(=O)C(F)(F)F)CC4)cc3C2=O)c2c(N3CC4CCC(C3)O4)ccnc21 [Compound 286, 1-[(2Z)-2-{[1-methyl-4-(8-oxa-3-azabicyclo[3.2.1]oct-3-yl)-1H-pyrrolo[2,3-b]pyridin-3-yl]methylidene}-3-oxo-2,3-dihydro-1-benzofuran-5-yl]-3-[1-(trifluoroacetyl)piperidin-4-yl]urea]	6.45	6.97	5.76
Cn1cc(/C=C2\Oc3cc(O)cc(O)c3C2=O)c2c(C3=CCNCC3)ccnc21 [Compound 78, (2Z)-4,6-dihydroxy-2-{[1-methyl-4-(1,2,3,6-tetrahydropyridin-4-yl)-1H-pyrrolo[2,3-b]pyridin-3-yl]methylene}-1-benzofuran-3(2H)-one]	7.51	8.30	6.50
Cn1cc(/C=C2\Oc3cccc(O)c3C2=O)c2c(-c3ccc(N4CCCCC4)nc3)ccnc21 [Compound 70, (2Z)-4-hydroxy-2-{[1-methyl-4-(6-piperidin-1-ylpyridin-3-yl)-1H-pyrrolo[2,3-b]pyridin-3-yl]methylene}-1-benzofuran-3(2H)-one]	6.57	6.94	6.62
Cn1c(-c2ccccc2)c(/C=C2\Oc3cccc(O)c3C2=O)c2cccnc21 [Compound 29, (2Z)-4-hydroxy-2-[(1-methyl-2-phenyl-1H-pyrrolo[2,3-b]pyridin-3-yl)methylene]-1-benzofuran-3(2H)-one]	5.44	5.57	5.10
Cn1cc(/C=C2\Oc3ccc(NC(=O)Nc4ccccc4)cc3C2=O)c2c(N3CC4CCC(C3)O4)ccnc21 [Compound 172, 1-[(2Z)-2-{[1-methyl-4-(8-oxa-3-azabicyclo[3.2.1]oct-3-yl)-1H-pyrrolo[2,3-b]pyridin-3-yl]methylidene}-3-oxo-2,3-dihydro-1-benzofuran-5-yl]-3-phenylurea]	6.30	6.84	5.95
(2Z)-4-hydroxy-2-{[1-methyl-4-(1H-pyrrol-2-yl)-1H-pyrrolo[2,3-b]pyridin-3-yl]methylidene}-1-benzofuran-3(2H)-one [Compound 23]	6.42	7.30	5.68
CON(C)C(=O)c1ccc(-c2ccnc3c2c(/C=C2\Oc4cccc(O)c4C2=O)cn3C)cc1 [Compound 196, 4-{3-[(Z)-(4-hydroxy-3-oxo-1-benzofuran-2(3H)-ylidene)methyl]-1-methyl-1H-pyrrolo[2,3-b]pyridin-4-yl}-N-methoxy-N-methylbenzamide]	7.39	9.00	7.18
Cn1cc(/C=C2\Oc3ccc(NC(=O)Nc4cccnc4)cc3C2=O)c2c(C(=O)N3CCCCC3)ccnc21 [Compound 234, 1-[(2Z)-2-{[1-methyl-4-(piperidin-1-ylcarbonyl)-1H-pyrrolo[2,3-b]pyridin-3-yl]methylidene}-3-oxo-2,3-dihydro-1-benzofuran-5-yl]-3-pyridin-3-ylurea]	6.60	< 5.40	5.60
CN(C(=O)C1CCN(c2ccnc3c2c(/C=C2\Oc4ccc(NC(=O)Nc5cccnc5)cc4C2=O)cn3C)CC1)C1CCCC1 [Compound 227, N-cyclopentyl-N-methyl-1-{1-methyl-3-[(Z)-{3-oxo-5-[(pyridin-3-ylcarbamoyl)amino]-1-benzofuran-2(3H)-ylidene}methyl]-1H-pyrrolo[2,3-b]pyridin-4-yl}piperidine-4-carboxamide]	5.56	6.78	5.96
Cn1cc(/C=C2\Oc3ccc(NC(=O)Nc4cccnc4)cc3C2=O)c2c(-c3ccc(C(=O)N4CCOCC4)cc3)ccnc21 [Compound 178, 1-[(2Z)-2-({1-methyl-4-[4-(morpholin-4-ylcarbonyl)phenyl]-1H-pyrrolo[2,3-b]pyridin-3-yl}methylidene)-3-oxo-2,3-dihydro-1-benzofuran-5-yl]-3-pyridin-3-ylurea]	5.95	7.26	6.19
CN(C)C1CCN(C(=O)C2CCN(c3ccnc4c3c(C=C3Oc5ccc(NC(=O)Nc6cccnc6)cc5C3=O)cn4C)CC2)C1 (stereo not drawn) [Compound 210, 1-(2-{[4-(4-{[3-(dimethylamino)pyrrolidin-1-yl]carbonyl}piperidin-1-yl)-1-methyl-1H-pyrrolo[2,3-b]pyridin-3-yl]methylidene}-3-oxo-2,3-dihydro-1-benzofuran-5-yl)-3-pyridin-3-ylurea]	< 5.00	7.96	5.66
CN(C)c1ccc(-c2ccnc3c2c(/C=C2\Oc4cc(O)cc(O)c4C2=O)cn3C)cc1 [Compound 25, (2Z)-2-({4-[4-(dimethylamino)phenyl]-1-methyl-1H-pyrrolo[2,3-b]pyridin-3-yl}methylene)-4,6-dihydroxy-1-benzofuran-3(2H)-one]	7.07	9.30	7.08

Now from value to molecule:

pIC50 [1]	pIC50 [2]	pIC50 [3]	Molecule
6.60	7.81	6.46	CNC(=O)Nc1ccc2c(c1)C(=O)/C(=C/c1cn(C)c3nccc(-c4ccc(C(=O)N5CCN(CCO)CC5)cc4)c13)O2 [Compound 166, 1-[(2Z)-2-{[4-(4-{[4-(2-hydroxyethyl)piperazin-1-yl]carbonyl}phenyl)-1-methyl-1H-pyrrolo[2,3-b]pyridin-3-yl]methylidene}-3-oxo-2,3-dihydro-1-benzofuran-5-yl]-3-methylurea]
6.56	7.59	5.67	Cn1cc(/C=C2\Oc3ccc(NC(=O)Nc4ccc(F)nc4)cc3C2=O)c2c(N3CC4CCC(C3)O4)ccnc21 [Compound 298, 1-(6-fluoropyridin-3-yl)-3-[(2Z)-2-{[1-methyl-4-(8-oxa-3-azabicyclo[3.2.1]oct-3-yl)-1H-pyrrolo[2,3-b]pyridin-3-yl]methylidene}-3-oxo-2,3-dihydro-1-benzofuran-5-yl]urea]
7.64	8.74	7.16	Cn1cc(/C=C2\Oc3cc(O)cc(O)c3C2=O)c2c(-c3cccc(S(=O)(=O)N4CCCCC4)c3)ccnc21 [Compound 80, (2Z)-4,6-dihydroxy-2-({1-methyl-4-[3-(piperidin-1-ylsulfonyl)phenyl]-1H-pyrrolo[2,3-b]pyridin-3-yl}methylene)-1-benzofuran-3(2H)-one]
5.48	8.38	5.94	Cn1cc(/C=C2\Oc3ccc(NC(=O)Nc4cccnc4)cc3C2=O)c2c(N3CCC(C(=O)NCCO)CC3)ccnc21 [Compound 254, N-(2-hydroxyethyl)-1-{1-methyl-3-[(Z)-{3-oxo-5-[(pyridin-3-ylcarbamoyl)amino]-1-benzofuran-2(3H)-ylidene}methyl]-1H-pyrrolo[2,3-b]pyridin-4-yl}piperidine-4-carboxamide]
6.21	7.52	6.64	CN(C)C(=O)C1CCN(c2ccnc3c2c(/C=C2\Oc4ccc(NC(=O)Nc5ccc(CN6CCCCC6)cc5)cc4C2=O)cn3C)CC1 [Compound 216, N,N-dimethyl-1-(1-methyl-3-{(Z)-[3-oxo-5-({[4-(piperidin-1-ylmethyl)phenyl]carbamoyl}amino)-1-benzofuran-2(3H)-ylidene]methyl}-1H-pyrrolo[2,3-b]pyridin-4-yl)piperidine-4-carboxamide]
< 5.00	7.65	6.05	CN(C)CCNC(=O)C1CCN(c2ccnc3c2c(/C=C2\Oc4ccc(NC(=O)Nc5cccnc5)cc4C2=O)cn3C)CC1 [Compound 261, N-[2-(dimethylamino)ethyl]-1-{1-methyl-3-[(Z)-{3-oxo-5-[(pyridin-3-ylcarbamoyl)amino]-1-benzofuran-2(3H)-ylidene}methyl]-1H-pyrrolo[2,3-b]pyridin-4-yl}piperidine-4-carboxamide]
< 5.00	8.32	< 5.00	COCCCNC(=O)C1CCN(c2ccnc3c2c(C=C2Oc4ccc(NC(=O)Nc5cccnc5)cc4C2=O)cn3C)CC1 [Compound 200, N-(3-methoxypropyl)-1-[1-methyl-3-({3-oxo-5-[(pyridin-3-ylcarbamoyl)amino]-1-benzofuran-2(3H)-ylidene}methyl)-1H-pyrrolo[2,3-b]pyridin-4-yl]piperidine-4-carboxamide]
7.11	8.47	6.22	COc1ccc(-c2ccnc3c2c(/C=C2\Oc4cccc(O)c4C2=O)cn3C)cc1S(=O)(=O)N1CCCC1 [Compound 86, (2Z)-4-hydroxy-2-({4-[4-methoxy-3-(pyrrolidin-1-ylsulfonyl)phenyl]-1-methyl-1H-pyrrolo[2,3-b]pyridin-3-yl}methylene)-1-benzofuran-3(2H)-one]
8.05	9.70	7.27	Cn1cc(/C=C2\Oc3cc(O)cc(O)c3C2=O)c2c(-c3ccc(C(=O)N4CCCC4)cc3)ccnc21 [Compound 92, (2Z)-4,6-dihydroxy-2-({1-methyl-4-[4-(pyrrolidin-1-ylcarbonyl)phenyl]-1H-pyrrolo[2,3-b]pyridin-3-yl}methylene)-1-benzofuran-3(2H)-one]
5.29	5.60	5.29	Cn1c(-c2ccccc2)c(/C=C2\Oc3cc(O)ccc3C2=O)c2cccnc21 [Compound 28, (2Z)-6-hydroxy-2-[(1-methyl-2-phenyl-1H-pyrrolo[2,3-b]pyridin-3-yl)methylene]-1-benzofuran-3(2H)-one]
7.70	8.85	7.15	Cn1cc(/C=C2\Oc3cccc(O)c3C2=O)c2c(-c3ccc(S(=O)(=O)NC4CC4)cc3)ccnc21 [Compound 82, N-cyclopropyl-4-{3-[(Z)-(4-hydroxy-3-oxo-1-benzofuran-2(3H)-ylidene)methyl]-1-methyl-1H-pyrrolo[2,3-b]pyridin-4-yl}benzenesulfonamide]
6.44	6.12	6.32	Cn1cc(/C=C2\Oc3ccc(NC(=O)Nc4cccnc4)cc3C2=O)c2c(-c3ccccc3)ccnc21 [Compound 183, 1-{(2Z)-2-[(1-methyl-4-phenyl-1H-pyrrolo[2,3-b]pyridin-3-yl)methylidene]-3-oxo-2,3-dihydro-1-benzofuran-5-yl}-3-pyridin-3-ylurea]
